In ChEMBL document CHEMBL3727356, “Therapeutic compounds and compositions” (2014):

Assays:
[1] = target: Pyruvate kinase PKLR (Homo sapiens, UniProt P30613, R510Q); assay: Activation of PKR R510Q mutant (unknown origin) incubated for 60 mins in presence of ADP, PEP and NADH by Spectraax microplate reader based assay
[2] = target: T1, Pyruvate kinase PKLR (Homo sapiens, UniProt P30613); assay: Activation of wild type PKR (unknown origin) incubated for 60 mins in presence of ADP, PEP and NADH by Spectraax microplate reader based assay
T1 sequence (P30613 whole entry): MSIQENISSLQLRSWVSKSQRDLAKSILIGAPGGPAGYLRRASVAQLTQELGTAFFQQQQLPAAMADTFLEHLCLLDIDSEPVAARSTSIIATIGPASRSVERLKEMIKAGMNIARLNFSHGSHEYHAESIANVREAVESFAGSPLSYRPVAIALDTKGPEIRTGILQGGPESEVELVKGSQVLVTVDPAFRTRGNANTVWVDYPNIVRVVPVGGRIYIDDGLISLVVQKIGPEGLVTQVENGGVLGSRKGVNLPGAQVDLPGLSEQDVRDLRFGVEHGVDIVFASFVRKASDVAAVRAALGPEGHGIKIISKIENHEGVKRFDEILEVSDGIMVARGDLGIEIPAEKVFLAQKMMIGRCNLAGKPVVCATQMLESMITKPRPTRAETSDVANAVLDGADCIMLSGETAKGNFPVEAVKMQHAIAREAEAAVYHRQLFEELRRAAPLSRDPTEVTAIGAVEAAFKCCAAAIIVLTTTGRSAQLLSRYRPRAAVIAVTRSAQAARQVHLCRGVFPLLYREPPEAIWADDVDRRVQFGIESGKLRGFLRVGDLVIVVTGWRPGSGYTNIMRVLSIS

[3] = target: T1, Pyruvate kinase PKLR; assay: Activation of wild type PKR (unknown origin) by cell based assay
[4] = target: Pyruvate kinase PKLR (Homo sapiens, UniProt P30613, R532W); assay: Activation of PKR R532W mutant (unknown origin) incubated for 60 mins in presence of ADP, PEP and NADH by Spectraax microplate reader based assay
Sequence of Pyruvate kinase PKLR (Homo sapiens, UniProt P30613, R532W) (P30613 whole entry R532W): as the sequence (P30613 whole entry) above, with R532W counted along it

Sequence of Pyruvate kinase PKLR (Homo sapiens, UniProt P30613, R510Q) (P30613 whole entry R510Q): as the sequence (P30613 whole entry) above, with R510Q counted along it

SMILES	AC50 [1] [µM]	AC50 [2] [µM]	AC50 [3] [µM]	AC50 [4] [µM]
O=C(c1ccc(NS(=O)(=O)c2cccc3cccnc23)cc1)N1CCC(O)(c2ccccc2C(F)(F)F)CC1	< 0.1	< 0.1	< 0.1	< 0.1
CC(C)CC1(O)CCN(C(=O)c2ccc(NS(=O)(=O)c3cccc4ncc(O)nc34)cc2)CC1	> 10	> 10	–	> 10
O=C(c1ccc(NS(=O)(=O)c2cccc3nccnc23)cc1)N1CCC(O)(CCC=C(F)F)CC1	< 0.1	< 0.1	< 0.1	< 0.1
O=C(c1ccc(NS(=O)(=O)c2ccc3nsnc3c2)cc1)N1CCC(O)(Cc2ccccc2)CC1	≤ 1	< 0.1	≤ 1	< 0.1
CS(=O)(=O)CCC1(O)CCN(C(=O)c2ccc(NS(=O)(=O)c3cccc4scnc34)cc2)CC1	> 10	–	–	> 10
CC(C)CC1(O)CCN(C(=O)c2ccc(NS(=O)(=O)c3cccc4[nH]cnc34)cc2)CC1	> 10	> 10	–	> 10
O=C(c1ccc(NS(=O)(=O)c2cccc3ccnnc23)cc1)N1CCC(O)(c2ccccc2Cl)CC1	> 10	–	–	> 10
O=C(c1ccc(NS(=O)(=O)c2cccc3scnc23)cc1)N1CCC(O)(CCCC(F)F)CC1	< 0.1	< 0.1	< 0.1	< 0.1
CC(C)CC1(O)CCN(C(=O)c2ccc(NS(=O)(=O)c3cccc4ccc(N)nc34)cc2)CC1	< 0.1	< 0.1	< 0.1	< 0.1
O=C(c1ccc(NS(=O)(=O)c2cccc3c2OCC3)cc1)N1CCC(O)(c2ccccc2Cl)CC1	> 10	≥ 1.01	–	≥ 1.01
CC(C)(C)CC1(O)CCN(C(=O)c2ccc(NS(=O)(=O)c3cccc4cccnc34)cc2)CC1	< 0.1	< 0.1	< 0.1	< 0.1
Cn1ccc(C2(O)CCN(C(=O)c3ccc(NS(=O)(=O)c4cccc5scnc45)cc3)CC2)n1	> 10	> 10	–	> 10
O=C(c1ccc(NS(=O)(=O)c2cccc3nccnc23)cc1)N1CCC(O)(CCCC(F)(F)F)CC1	< 0.1	< 0.1	< 0.1	< 0.1
CCn1cc(CC2(O)CCN(C(=O)c3ccc(NS(=O)(=O)c4cccc5nccnc45)cc3)CC2)cn1	> 10	–	–	–
Cc1nscc1CC1(O)CCN(C(=O)c2ccc(NS(=O)(=O)c3cccc4scnc34)cc2)CC1	< 0.1	< 0.1	< 0.1	< 0.1
CCCCC1(O)CCN(C(=O)c2ccc(NS(=O)(=O)c3cccc4cccnc34)cc2)CC1	< 0.1	< 0.1	< 0.1	< 0.1
O=C(c1ccc(NS(=O)(=O)c2cccc3nccnc23)cc1)N1CCC(O)(Cc2ccccc2C(F)(F)F)CC1	< 0.1	< 0.1	< 0.1	< 0.1
CC(F)(F)CCC1(O)CCN(C(=O)c2ccc(NS(=O)(=O)c3cc(F)cc4sc(N)nc34)cc2)CC1	< 0.1	< 0.1	–	< 0.1
CC(C)CC1(O)CCN(C(=O)c2ccc(NS(=O)(=O)c3cccc4scnc34)cc2)CC1	< 0.1	< 0.1	< 0.1	< 0.1
O=C(c1ccc(NS(=O)(=O)c2cccc3cccnc23)cc1OC(F)(F)F)N1CCC(O)(c2ccccc2Cl)CC1	< 0.1	< 0.1	< 0.1	< 0.1
O=C(c1ccc(NS(=O)(=O)c2cccc3scnc23)cc1)N1CCC(O)(/C=C/CC(F)(F)F)CC1	< 0.1	< 0.1	–	< 0.1
O=C(c1ccc(NS(=O)(=O)c2cccc3[nH]cnc23)cc1)N1CCC(O)(c2ccccc2Cl)CC1	> 10	≥ 1.01	–	≥ 1.01

SMILES	AC50 [1] [µM]	AC50 [2] [µM]	AC50 [3] [µM]	AC50 [4] [µM]
O=C(c1ccc(NS(=O)(=O)c2cccc3cccnc23)cc1)N1CCC(O)(c2ccccc2OC(F)(F)F)CC1	< 0.1	< 0.1	–	< 0.1
O=C(c1ccc(NS(=O)(=O)c2cccc3snnc23)cc1)N1CCC(O)(c2ccccc2Cl)CC1	> 10	–	–	–
CC(C)CC1(O)CCN(C(=O)c2ccc(NS(=O)(=O)Cc3ccccn3)cc2)CC1	> 10	> 10	–	> 10
O=C1NCCC1CC1(O)CCN(C(=O)c2ccc(NS(=O)(=O)c3cccc4scnc34)cc2)CC1 (stereo unspecified)	> 10	–	–	–
CN1CCC(CC2(O)CCN(C(=O)c3ccc(NS(=O)(=O)c4cccc5scnc45)cc3)CC2)C1=O (stereo unspecified)	> 10	–	–	–
O=C(c1ccc(NS(=O)(=O)c2ccc(F)c3cccnc23)cc1)N1CCC(O)(Cc2ccccc2F)CC1	< 0.1	< 0.1	–	< 0.1
CS(=O)(=O)CCC1(O)CCN(C(=O)c2ccc(NS(=O)(=O)c3cccc4nccnc34)cc2)CC1	> 10	–	–	–
O=C(c1ccc(NS(=O)(=O)n2ccc3cccnc32)cc1)N1CCC(O)(c2ccccc2Cl)CC1	> 10	> 10	–	> 10
Nc1nc2c(S(=O)(=O)Nc3ccc(C(=O)N4CCC(O)(/C=C/CC(F)(F)F)CC4)cc3)cccc2s1	< 0.1	< 0.1	< 0.1	–
O=C(c1ccc(NS(=O)(=O)c2cccc3c(O)ncnc23)cc1)N1CCC(O)(/C=C/CC(F)(F)F)CC1	< 0.1	< 0.1	–	–
COc1nc(C(=O)N2CCC(O)(c3ccccc3)CC2)ccc1NS(=O)(=O)c1cccc2cccnc12	> 10	–	–	–
O=C(c1ccc(NS(=O)(=O)c2ccccc2Cl)cc1)N1CCC(O)(Cc2ccccc2)CC1	≤ 1	≤ 1	–	≤ 1
O=C(c1ccc(NS(=O)(=O)c2cccc3c2OC(F)(F)O3)cc1)N1CCC(O)(c2ccccc2Cl)CC1	> 10	–	–	–
Nc1nc2cc(S(=O)(=O)Nc3ccc(C(=O)N4CCC(O)(c5ccccc5Cl)CC4)cc3)c(F)cc2s1	> 10	–	–	> 10
O=C(c1ccc(NS(=O)(=O)c2cccc3cccnc23)cc1)N1CCC(C(=O)O)(c2ccccc2)CC1	> 10	> 10	–	> 10
O=C1NCCC1CC1(O)CCN(C(=O)c2ccc(NS(=O)(=O)c3cccc4nccnc34)cc2)CC1 (stereo unspecified)	> 10	–	–	–
O=C(c1ccc(NS(=O)(=O)c2cccc3nsnc23)cc1)N1CCC(O)(c2ccccc2)CC1	> 10	–	–	–
O=C(c1ccc(NS(=O)(=O)Cc2ccccn2)cc1)N1CCC(O)(c2ccccc2Cl)CC1	> 10	> 10	–	> 10
CC(C)CC1(O)CCN(C(=O)c2ccc(NS(=O)(=O)c3cccc4c3OCC4)cc2)CC1	≥ 1.01	≥ 1.01	–	≥ 1.01
CCn1cc(CC2(O)CCN(C(=O)c3ccc(NS(=O)(=O)c4cccc5scnc45)cc3)CC2)cn1	> 10	–	–	–
CCS(=O)(=O)CC1(O)CCN(C(=O)c2ccc(NS(=O)(=O)c3cccc4nccnc34)cc2)CC1	> 10	≥ 1.01	–	≥ 1.01
CC(C)CC1(O)CCN(C(=O)c2ccc(NS(=O)(=O)c3c(F)ccc4ncsc34)cc2)CC1	> 10	–	–	–

SMILES	AC50 [1] [µM]	AC50 [2] [µM]	AC50 [3] [µM]	AC50 [4] [µM]
CC(C)CC1(O)CCN(C(=O)c2ccc(NS(=O)(=O)c3cccn4ccnc34)cc2)CC1	> 10	–	–	–
CC(C)CC1(O)CCN(C(=O)c2ccc(NS(=O)(=O)c3ccnc4scnc34)cc2)CC1	> 10	–	–	> 10
CCS(=O)(=O)CC1(O)CCN(C(=O)c2ccc(NS(=O)(=O)c3cccc4scnc34)cc2)CC1	> 10	–	–	–
CC1(O)CCC(C2(O)CCN(C(=O)c3ccc(NS(=O)(=O)c4cccc5scnc45)cc3)CC2)CC1 (stereo unspecified)	≥ 1.01	≤ 1	–	≥ 1.01
CC(CC1(O)CCN(C(=O)c2ccc(NS(=O)(=O)c3cccc4c(O)ncnc34)cc2)CC1)C(F)(F)F (stereo unspecified)	< 0.1	< 0.1	–	< 0.1
O=C(c1ccc(NS(=O)(=O)c2cccc3nccnc23)cc1)N1CCC(O)(c2ncc(Cl)s2)CC1	≥ 1.01	≤ 1	–	≤ 1
CC1(O)CCN(C(=O)c2ccc(NS(=O)(=O)c3cccc4cccnc34)cc2)CC1	> 10	–	–	–
O=C(c1ccc(NS(=O)(=O)c2cccc3ncccc23)cc1)N1CCC(O)(c2ccccc2)CC1	> 10	–	–	–
CC1(CC2(O)CCN(C(=O)c3ccc(NS(=O)(=O)c4cccc5scnc45)cc3)CC2)CC1	< 0.1	< 0.1	–	< 0.1
CC(C)CC1(OP(=O)(O)O)CCN(C(=O)c2ccc(NS(=O)(=O)c3cccc4nccnc34)cc2)CC1	> 10	–	–	–
CC(C)CC1(O)CCN(C(=O)c2ccc(NS(=O)(=O)c3cnc(O)c4cccnc34)cc2)CC1	> 10	–	–	> 10
COc1cccnc1C1(O)CCN(C(=O)c2ccc(NS(=O)(=O)c3cccc4cccnc34)cc2)CC1	> 10	–	–	–
CC1(O)CCC(C2(O)CCN(C(=O)c3ccc(NS(=O)(=O)c4cccc5nccnc45)cc3)CC2)CC1 (stereo unspecified)	≤ 1	≤ 1	–	≤ 1
O=C(c1ccc(NS(=O)(=O)c2cccc(OC(F)(F)F)c2)cc1)N1CCC(O)(Cc2ccccc2)CC1	> 10	–	–	–
O=C(c1ccc(NS(=O)(=O)c2cccc3scnc23)cc1)N1CCC(O)(c2ncc(Cl)s2)CC1	> 10	–	–	–
CNc1nc2c(S(=O)(=O)Nc3ccc(C(=O)N4CCC(O)(c5ccccc5Cl)CC4)cc3)cccc2s1	< 0.1	< 0.1	–	< 0.1
O=C(c1ccc(N[S+]([O-])c2cccc3cccnc23)cc1)N1CCC(O)(c2ccccc2Cl)CC1 (stereo unspecified)	> 10	–	–	–
O=C(c1ccc(NS(=O)(=O)c2cccc3cccnc23)nc1)N1CCC(O)(c2ccccc2)CC1	> 10	–	–	–
O=C(c1ccc(NS(=O)(=O)c2c[nH]c3cccnc23)cc1)N1CCC(O)(c2ccccc2Cl)CC1	> 10	> 10	–	> 10
COc1cc(NS(=O)(=O)c2cccc3cccnc23)ccc1C(=O)N1CCC(O)(Cc2ccccc2)CC1	< 0.1	< 0.1	–	< 0.1
